The results in this text go back to ChEMBL document CHEMBL1201862, “PubChem BioAssay data set” (2004).

Test [1] can be described thus: Luminescence Cell-Based Dose Response HTS to Identify Inhibitors of 5'UTR Stem-Loop Driven Prion Protein mRNA Translation in H4 Neuroglioblastoma Cells. [Related pubchem assays: 1827 (Project Summary), 1813 (Primary HTS)]. The test is classed as functional.
Test [2] in a line: luciferase reporter signal suppression in cells – H4 neuroglioma cells, luminescence, dose response (AID 1990). Type of test: functional, cell-based. (A reporter such as luciferase makes a cellular process visible.)
A short description of test [3]: alpha-synuclein stem-loop luciferase translation blockers – H4 neuroglioma cells, luminescence, confirmation (AID 1988). Type of test: functional, cell-based.
A further test concerns the target Cytochrome P450 2D6 (Homo sapiens, UniProt P10635).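 Also: CYP2D6 member of a cytochrome P450 panel assay.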
Another test deals with Cytochrome P450 3A4 (Homo sapiens, UniProt P08684).
Sequence of Cytochrome P450 3A4 (P08684 whole entry): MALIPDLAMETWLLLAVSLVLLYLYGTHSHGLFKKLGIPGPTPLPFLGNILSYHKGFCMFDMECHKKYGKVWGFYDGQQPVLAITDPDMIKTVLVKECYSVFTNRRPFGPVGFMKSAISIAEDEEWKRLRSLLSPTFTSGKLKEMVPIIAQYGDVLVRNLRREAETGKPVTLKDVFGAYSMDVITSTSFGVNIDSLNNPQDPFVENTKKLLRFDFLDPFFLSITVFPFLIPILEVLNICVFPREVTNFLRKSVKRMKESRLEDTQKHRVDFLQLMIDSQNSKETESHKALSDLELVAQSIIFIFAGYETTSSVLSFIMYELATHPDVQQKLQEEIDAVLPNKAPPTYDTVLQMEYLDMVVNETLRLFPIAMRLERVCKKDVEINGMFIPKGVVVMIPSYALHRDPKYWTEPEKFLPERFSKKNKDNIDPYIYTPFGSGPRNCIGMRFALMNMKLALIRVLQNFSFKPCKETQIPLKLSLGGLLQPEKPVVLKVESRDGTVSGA
Test [4] can be described thus: microbe, parasite or virus in culture. The test is classed as functional. Particulars: Mycobacterium tuberculosis.
The target of the next test is Cytochrome P450 2C9 (Homo sapiens, UniProt P11712).
Sequence of Cytochrome P450 2C9 (P11712 whole entry): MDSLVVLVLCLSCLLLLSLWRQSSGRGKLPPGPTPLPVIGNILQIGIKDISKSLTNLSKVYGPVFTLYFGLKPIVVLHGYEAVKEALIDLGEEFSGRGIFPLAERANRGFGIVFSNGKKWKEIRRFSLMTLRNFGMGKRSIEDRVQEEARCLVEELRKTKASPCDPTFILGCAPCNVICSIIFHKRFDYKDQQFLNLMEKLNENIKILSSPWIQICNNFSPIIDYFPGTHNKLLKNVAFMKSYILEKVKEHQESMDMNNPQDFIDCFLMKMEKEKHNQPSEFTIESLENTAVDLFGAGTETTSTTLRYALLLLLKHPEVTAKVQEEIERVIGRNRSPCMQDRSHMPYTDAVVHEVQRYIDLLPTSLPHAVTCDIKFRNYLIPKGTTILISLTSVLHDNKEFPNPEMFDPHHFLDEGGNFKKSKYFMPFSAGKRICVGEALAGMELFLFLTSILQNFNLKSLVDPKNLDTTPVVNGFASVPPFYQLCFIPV
Another test concerns the target T1, Cytochrome P450 1A2 (Homo sapiens, UniProt P05177).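 Also: PubChem cytochrome P450 panel assay, CYP1A2 panel member.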
T1 sequence (P05177 whole entry): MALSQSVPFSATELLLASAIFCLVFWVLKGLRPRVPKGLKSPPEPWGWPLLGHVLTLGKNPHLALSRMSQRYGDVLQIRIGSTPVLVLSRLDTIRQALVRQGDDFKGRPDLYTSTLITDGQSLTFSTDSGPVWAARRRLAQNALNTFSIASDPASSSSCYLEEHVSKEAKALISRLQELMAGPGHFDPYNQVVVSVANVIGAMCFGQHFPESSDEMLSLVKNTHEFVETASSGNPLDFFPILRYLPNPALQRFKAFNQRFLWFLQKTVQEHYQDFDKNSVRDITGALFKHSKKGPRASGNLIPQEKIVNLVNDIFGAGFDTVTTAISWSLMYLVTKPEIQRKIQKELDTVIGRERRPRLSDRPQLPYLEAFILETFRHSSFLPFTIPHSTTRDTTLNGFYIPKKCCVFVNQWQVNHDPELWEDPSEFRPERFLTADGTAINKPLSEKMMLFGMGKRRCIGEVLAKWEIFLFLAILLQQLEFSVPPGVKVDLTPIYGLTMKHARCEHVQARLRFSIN

A short description of test [5]: NIH3T3 cell viability loss – ATP luminescence, mouse fibroblasts, counter-screen, dose response (AID 2010).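 Also: cells exposed to compound for about 90 hours before reading.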 Type of test: functional, cell-based.
Test [6] is described as follows: Trypanosoma cruzi growth suppression in host cells – NIH3T3 host cells, beta-gal luminescence, confirmation (AID 2044).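 Also: intracellular parasites grown in NIH/3T3 mouse fibroblasts as host cells; luminescent beta-galactosidase reporter signal from transgenic T. cruzi replicating inside host cells; inhibitors lower the luminescence signal.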 Type of test: functional, cell-based.
The target in another test is Cytochrome P450 2C19 (Homo sapiens, UniProt P33261). Nature of the test: Cytochrome panel assay with activity outcomes. Panel member name: p450-cyp2c19 Compounds with AC50 equal or less than 10 uM are considered active. The test is classed as functional. Particulars: read-out: AC50.
Sequence of Cytochrome P450 2C19 (P33261 whole entry): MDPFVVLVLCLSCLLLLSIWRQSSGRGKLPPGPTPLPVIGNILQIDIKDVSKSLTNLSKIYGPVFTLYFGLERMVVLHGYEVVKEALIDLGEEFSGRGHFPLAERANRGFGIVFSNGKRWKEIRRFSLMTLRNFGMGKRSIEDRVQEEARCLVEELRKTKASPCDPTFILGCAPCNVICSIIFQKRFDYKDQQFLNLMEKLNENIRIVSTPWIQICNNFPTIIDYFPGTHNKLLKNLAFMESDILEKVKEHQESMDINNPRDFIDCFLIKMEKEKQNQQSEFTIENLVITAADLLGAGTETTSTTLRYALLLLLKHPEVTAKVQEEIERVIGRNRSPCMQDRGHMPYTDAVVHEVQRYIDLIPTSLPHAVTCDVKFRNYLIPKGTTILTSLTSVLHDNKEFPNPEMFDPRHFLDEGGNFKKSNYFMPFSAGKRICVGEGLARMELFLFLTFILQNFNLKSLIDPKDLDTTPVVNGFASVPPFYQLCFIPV
A short description of test [7]: fluconazole-exposed Candida albicans growth modulators – fluorescence, retest, confirmation (AID 2467). Type of test: functional, cell-based.
Test [8] is described as follows: NIH-3T3 fibroblast cytotoxicity, dose response, cytotoxicity control, cell-based, fluorescence, Alamar Blue, secondary assay (AID 2327).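 Also: NIH-3T3 mouse fibroblasts cultured with fluconazole at 8 µg/mL.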 The test is classed as functional.
For another test, the system named is H9c2. The test can be described thus: cells. Type of test: functional, cell-based. The conditions noted are these: Rattus norvegicus, H9c2, Myocardium.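 Also: confirmatory concentration-response retest of ultra-high-throughput screening hits for modulation of myocardial damage; cell death induced by hydrogen peroxide oxidative stress; compound pretreatment for 60 min then peroxide exposure for 2 h; potency is for protecting the cells against peroxide damage rather than for killing them.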

A word on the EC50: it is the concentration needed to bring the measured effect to its halfway point. The term AC50 denotes the midpoint of the concentration-response curve, whichever way the signal moves. Usually IC50 stands for the concentration that inhibits the measured activity by half.

Calls of active or inactive are those of the source.

Sequence of Cytochrome P450 2D6 (P10635 whole entry): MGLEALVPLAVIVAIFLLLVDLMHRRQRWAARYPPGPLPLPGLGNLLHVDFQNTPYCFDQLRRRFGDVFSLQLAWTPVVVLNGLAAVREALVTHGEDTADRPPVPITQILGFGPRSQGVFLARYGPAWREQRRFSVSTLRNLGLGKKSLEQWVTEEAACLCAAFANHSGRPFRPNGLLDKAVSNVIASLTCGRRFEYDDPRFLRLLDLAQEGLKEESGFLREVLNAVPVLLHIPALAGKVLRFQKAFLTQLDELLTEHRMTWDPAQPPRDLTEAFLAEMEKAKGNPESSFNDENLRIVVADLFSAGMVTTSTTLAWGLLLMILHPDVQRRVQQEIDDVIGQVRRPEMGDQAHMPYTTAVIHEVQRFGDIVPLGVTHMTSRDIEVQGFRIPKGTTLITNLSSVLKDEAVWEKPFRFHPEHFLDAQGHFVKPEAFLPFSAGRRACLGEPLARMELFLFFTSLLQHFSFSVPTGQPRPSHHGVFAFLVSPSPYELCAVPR

Regarding `O=C(C1CCN(c2nc(-c3ccccc3)nc3c2CCC3)CC1)N1CCCC1`, the EC50 in [1] was 24.7 µM (active); in test [2], > 120 µM (not active); in test [3], 16.7 µM (active).
Regarding `O=C(c1ccccc1)c1c[nH]c(C(=O)NCc2cccnc2)c1`, at Cytochrome P450 2D6, the AC50 was 15.8 µM (inconclusive).
As to `C/C(CCN1CCCCc2nc(C)c(C)cc21)=N\OC[C@@H](O)COCc1ccco1`, the AC50 at Cytochrome P450 2D6 is 7.94 µM (inconclusive).
The same measure, in the same setting: the same measure for `NC(=O)/C(=C\c1ccncc1)c1cccc2ccccc12`: 2 µM (inconclusive).
On to `CN1CC[C@@]2(CCCN(C(=O)c3ccco3)C2)C1`, for which the AC50 at Cytochrome P450 2D6 and on Cytochrome P450 3A4 was 20 µM (inconclusive) throughout.
Take `O=C(CSc1ccc(Cl)cc1)N1CCC(c2nc3ccccc3s2)CC1`: the CC50 in test [4] is 34.7 µM (active).
For the molecule `Fc1ccc(Nc2ccnc(-c3ccoc3)n2)cc1`, on Cytochrome P450 2D6, the AC50 was 20 µM (inconclusive).
Consider `CC(NC(=O)Cc1ccc(F)cc1)c1ccccc1` (configuration not stated), for which the AC50 on Cytochrome P450 2C9 was 10 µM (inconclusive); at Cytochrome P450 2D6 it was 15.8 µM (inconclusive); at Cytochrome P450 3A4 it was 25.1 µM (inconclusive).
Regarding `OC(c1ccccc1)(c1ccc(F)cc1)C(c1ccccc1)N1CCOCC1` (configuration not stated), the concentration at half-maximal activity (AC50) on Cytochrome P450 2D6 is 14.1 µM (inconclusive).
Take `C/C(=N\Nc1ccc(S(=O)(=O)N2CCCCC2)cn1)c1cccc(Br)c1`: the CC50 in test [4] was > 40 µM (active).
As to `CC(=O)c1cccc(NC(=O)CN2C(=O)COc3ccc(S(=O)(=O)N4CCOCC4)cc32)c1`, the EC50 in test [1], in [2] and in [3] was > 120 µM (not active) each time.
For the molecule `N#Cc1ccc(-c2ccc(F)cc2)nc1Oc1ccc(F)cc1`, the EC50 in test [1] was 22.6 µM (active); in test [2], > 120 µM (not active); in [3], > 120 µM (not active).
In the case of `Cc1nn(Cc2ccccc2Cl)c(C)c1NC(=O)CCCn1nc(C)c([N+](=O)[O-])c1C`, the values for the EC50 in test [1], in [2] and in [3] were > 120 µM (not active), 21 µM (active) and > 120 µM (not active), respectively.
As to `CCOP(=O)(OCC)c1nc(-c2ccc(Cl)cc2Cl)oc1N1CCCCC1`, the EC50 in test [1] is > 120 µM (not active); in test [2] it was > 120 µM (not active); in [3], 20.3 µM (active).
As to `CCOC(=O)Cc1csc(NC(=O)c2c(O)c3c(n(CC(C)C)c2=O)CCCC3)n1`, the CC50 in test [4] was > 40 µM (active).
`O=C(Cc1ccccc1[N+](=O)[O-])NCCSCc1c(F)cccc1Cl`: the concentration at half-maximal activity (AC50) at Cytochrome P450 2D6 is 2.82 µM (inconclusive); at Cytochrome P450 1A2, 5.62 µM (inconclusive).
As to `COc1ccccc1-n1c(SCC(=O)Nc2ccccc2F)nc2nncc-2c1O`, the AC50 at Cytochrome P450 2D6 is 8.91 µM (inconclusive); on Cytochrome P450 1A2, 28.2 µM (inconclusive).
As to `Clc1nc2c(-c3ccccc3)nnn2c2ccccc12`, the results for the EC50 in test [5] and in [6] were > 60 µM (not active) and 2.55 µM (active), respectively. Moreover, the CC50 in [4] is 27.3 µM (active).
`Cn1cccc1C(=O)N1CCC2(CC1)CN(Cc1cc(C(F)(F)F)cc(C(F)(F)F)c1)C2`: the figures for the AC50 on Cytochrome P450 2D6 and at Cytochrome P450 1A2 were 25.1 µM (inconclusive) and 10 µM (inconclusive), respectively.
As for `Cc1ccc2nc(N/N=C/c3ccccc3C#N)nc(-c3ccccc3)c2c1`, the CC50 in test [4] is 28.8 µM (active).
For `COC(=O)COc1ccc(-c2nccc(-c3ccccn3)n2)cc1`, the values for the EC50 in test [1], in test [2] and in test [3] were 7.98 µM (active), < 0.1 µM (active) and 0.159 µM (active), respectively.
As to `O=C(COc1ccc(Oc2ccccc2)cc1)NCc1cn2ccccc2n1`, the EC50 in test [1] was 14.8 µM (active); in test [2], 12.7 µM (active); in test [3], 8.5 µM (active).
For the molecule `CC1CCc2cc(F)ccc2N1C(=O)CSc1n[nH]c2c3cc(F)ccc3nc-2n1` (configuration not stated), the AC50 on Cytochrome P450 2D6 was 14.1 µM (inconclusive); on Cytochrome P450 2C19, 0.562 µM (inconclusive).
On to `O=C(C1=C[C@@H](c2csc3ccccc23)C[C@@H](OCc2ccc(CO)cc2)O1)N1CCN(Cc2ccc3c(c2)OCO3)CC1`, for which the results for the EC50 in test [1], in [2] and in test [3] were > 120 µM (not active), 11.3 µM (active) and 9.17 µM (active), respectively.
As for `Cc1nn(-c2ccccc2)c(N2CCCC2)c1/C=N/NC(=O)c1ccccc1O`, the EC50 is > 38 µM (not active) in test [7]; > 150 µM (inactive) in test [8]; > 120 µM (not active) in [1]; 29.2 µM (active) in [2]; 27.3 µM (active) in test [3].
Take `O=C(CCCSc1nc(O)c2c3c(sc2n1)CCC3)NCCO`: the IC50 with H9c2 is > 79 µM (inactive).
In the case of `COc1ccccc1-n1c2nc3ccccc3nc2c2c(=O)n(-c3cc(C)cc(C)c3)cnc21`, the EC50 in [1] was 0.528 µM (active); in [2], > 120 µM (not active); in test [3] it was > 120 µM (not active).
`COc1ccc(Cl)cc1N(CC(=O)Nc1ccccc1C(=O)NCc1ccco1)S(C)(=O)=O`: the EC50 in test [1], in test [2] and in test [3] was > 120 µM (not active) each time.
`Cn1cc(-c2nc3cnc(N4CCNCC4)nc3n(Cc3ccc(F)cc3)c2=O)c2ccccc21`: the AC50 at Cytochrome P450 2D6 and on Cytochrome P450 1A2 was 20 µM (inconclusive) throughout.
With `Cc1ccc(NC(=O)CSC(C)C(=O)OCc2cc(=O)oc3cc(O)ccc23)cc1` (configuration not stated), in the test with H9c2, the IC50 is > 79 µM (inactive).
`COc1ccc(OC)c(NC(=O)CN2C(=O)CSc3ccc(S(=O)(=O)N4CCCC4)cc32)c1`: the EC50 in test [1], in [2] and in [3] was > 120 µM (not active) in each case.
